Data: patent EP0516034A1, “Pharmaceutical compositions with immunosuppresive properties” (FIDIA S.p.A., priority 1991, dated 1992)

Columns and labels:
Assay type in all cases: cell-based, human
PBMC [1] = test: DNA synthesis ([3H]thymidine incorporation) in PHA-stimulated PBMC; settings: PBMC cultured 72 hours with PHA 1 µg/ml; for inhibition of DNA synthesis: result in words
Method: The PBMCs were obtained by standard density gradient centrifugation of heparinized human venous blood through a Ficoll-Hypaque cushion. The cells were composed of 90% lymphocytes and 10% monocytes as assessed by acridine orange staining.
DNA Synthesis. The cells were re-suspended in RPMI + 5% FCS and spread on 3072 Falcon microtiter plates at a density of 10⁵ cells in 0.2 ml of final volume. They were cultured for 72 hours at 37°C with PHA 1 µg/ml in the presence or absence of phospholipids. The cells were marked with 1 uCi/well of [³H]thymidine for the last 18 hours culture before being collected on filter paper and counted in a scintillation counter.

transferrin receptor = test: Flow cytometry of transferrin receptor expression on PHA-stimulated PBMC; settings: 72 hours, PHA 1 µg/ml, PS 60 nmol/10⁶ cells; PHA alone 54%
Method: (§1) To confirm the DNA synthesis parameter data obtained, a second lymphocyte activity parameter was analysed - the expression of the IL-2 and transferrin receptors on the cell membrane.
(§2) To this purpose, after incubation with PHA 1 µg/ml for 72 hours in the presence or absence of PS, the cells were stained with fluorescent monoclonal antibodies against the above receptor, and then analysed on a FAC Star (Beckton-Dickinson) flow cytometer equipped with an argon ion laser operating at 480 nm and 200 mw.
(§3) 10⁵ PBMC were cultured for 72 hours with PHA 1 µg/ml in the presence or absence of PS 60 nmol/10⁶ cells. Fluorescence intensity (receptor expression) and light diffusion (cell size) were measured using flow cytometry. The data are reported as percentage of cells located in the shown region.

PBMC [2] = test: Trypan blue exclusion test of cell viability; settings: PHA activated PBMC
Method: To exclude cytotoxic effect of used derivatives, cell viability (> 99%) was tested before, during, and after the incubation by the trypan blue exclusion test.

IL-2 receptor = test: Flow cytometry of IL-2 receptor expression on PHA-stimulated PBMC; settings: 72 hours, PHA 1 µg/ml, PS 60 nmol/10⁶ cells; PHA alone 77%
Method: as §1, §2, §3

Row | Compound | inhibition of DNA synthesis (PBMC [1]) | also measured
1 | CCCCCCCC/C=C\CCCCCCCC(=O)OC[C@H](COP(=O)(O)OC[C@H](N)C(=O)O)OC(=O)CCCCCCC/C=C\CCCCCCCC [Dioleyl PS, dioleyl-PS] | same activity as PS containing L-serine | –
2 | CCCCCCCCCCCCCCCC(=O)OCC(COC(=O)CCCCCCCCCCCCCCC)OP(=O)(O)OC[C@H](N)C(=O)O [PS-S1, 1,3-dipalmitoylglycero-2-phosphoryl-L-serine, reference compound] | do not inhibit DNA synthesis, but slightly stimulate it | –
3 | CCCCCCCC/C=C\CCCCCCCCOCC(COCCCCCCCC/C=C\CCCCCCCC)OP(=O)(O)OC[C@H](N)C(=O)O [PS-S10, 1,3-dioleylglycero-2-phosphoryl-L-serine] | same activity as PS containing L-serine | –
4 | CCCCCCCCCCCCCC(=O)OC[C@H](COP(=O)(O)OC[C@H](N)C(=O)O)OC(=O)CCCCCCCCCCCCC [dimyristoyl PS, dimyristoyl-PS, reference compound] | do not inhibit DNA synthesis, but slightly stimulate it | –
5 | CCCCCCCCCCCCCCCC(=O)OC[C@H](COP(=O)(O)OC[C@H](N)C(=O)O)OC(=O)CCCCCCCCCCCCCCC [dipalmitoyl PS, dipalmitoyl-PS, reference compound] | do not inhibit DNA synthesis, but slightly stimulate it | –
6 | phosphatidic acid [PA, reference compound] | totally inactive | –
7 | phosphatidylcolin [PC, reference compound] | totally inactive | –
8 | phosphatidylglycerol [PG, reference compound] | totally inactive | –
9 | phosphatidylinositol [PI] | active | –
10 | phosphatidylserine [PS] | marked inhibition | IC50 (PBMC [1]; corresponds to 30 nmol PS/10⁶ cells, read-out: 50% of the maximum effect, concentration of PS in the medium): 15 µM; 50% of the maximum effect (inhibition of DNA synthesis) (PBMC [1]; phospholipid as liposomes): 30 nmol/10⁶ cells; lymphocytes expressing transferrin receptors (transferrin receptor): 20%; Cell viability (PBMC [2]): not affected; lymphocytes expressing IL-2 receptors (IL-2 receptor): 15%
